Data published in ChEMBL document CHEMBL4732252, “Generating Selective Leads for Mer Kinase Inhibitors-Example of a Comprehensive Lead-Generation Strategy” (J Med Chem, 2021).

Assays:
[1] = target: T1, Tyrosine-protein kinase receptor TYRO3 (Homo sapiens, UniProt Q06418); experiment: Inhibition of GST-tagged Tyro3 (unknown origin) (453 to 890 residues) using Axltide (KKSRGDYMTMQIG-acid) peptide as substrate preincubated for 30 mins followed by substrate and ATP addition at Km concentration measured after 180 mins by RapidFire LC-MS analysis
T1 sequence (Q06418 whole entry): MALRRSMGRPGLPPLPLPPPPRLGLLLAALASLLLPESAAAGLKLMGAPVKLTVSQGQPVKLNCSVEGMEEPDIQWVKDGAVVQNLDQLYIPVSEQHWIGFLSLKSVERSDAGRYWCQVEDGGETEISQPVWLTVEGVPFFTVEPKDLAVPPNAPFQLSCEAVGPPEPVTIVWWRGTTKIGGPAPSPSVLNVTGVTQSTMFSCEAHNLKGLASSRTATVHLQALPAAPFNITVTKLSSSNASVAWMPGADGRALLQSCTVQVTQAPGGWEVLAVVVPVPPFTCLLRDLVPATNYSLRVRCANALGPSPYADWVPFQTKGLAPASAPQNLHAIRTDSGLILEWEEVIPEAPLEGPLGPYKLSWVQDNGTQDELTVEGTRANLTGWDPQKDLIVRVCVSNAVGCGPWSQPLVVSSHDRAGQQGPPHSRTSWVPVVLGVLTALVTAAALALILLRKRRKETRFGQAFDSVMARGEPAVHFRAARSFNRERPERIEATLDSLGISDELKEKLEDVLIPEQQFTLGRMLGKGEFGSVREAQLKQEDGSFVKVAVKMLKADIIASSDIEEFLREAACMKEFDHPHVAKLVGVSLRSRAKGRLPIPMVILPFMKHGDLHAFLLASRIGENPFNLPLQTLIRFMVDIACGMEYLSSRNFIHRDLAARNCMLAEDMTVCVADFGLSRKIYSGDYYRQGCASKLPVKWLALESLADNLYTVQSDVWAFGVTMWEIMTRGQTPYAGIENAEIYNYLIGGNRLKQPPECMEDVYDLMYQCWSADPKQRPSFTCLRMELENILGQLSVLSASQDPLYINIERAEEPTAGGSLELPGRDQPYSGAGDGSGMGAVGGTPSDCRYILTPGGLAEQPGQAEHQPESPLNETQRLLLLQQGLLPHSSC

[2] = target: T2, Receptor-type tyrosine-protein kinase FLT3 (Homo sapiens, UniProt P36888); experiment: Inhibition of His6/TEV fused-GST-tagged Flt3 (unknown origin) (H564 to S993 residues) using Axltide (CKKSRGDYMTMQJ-acid) peptide as substrate preincubated for 30 mins followed by substrate and ATP addition at Km concentration measured after 75 mins by RapidFire LC-MS analysis
T2 sequence (P36888 whole entry): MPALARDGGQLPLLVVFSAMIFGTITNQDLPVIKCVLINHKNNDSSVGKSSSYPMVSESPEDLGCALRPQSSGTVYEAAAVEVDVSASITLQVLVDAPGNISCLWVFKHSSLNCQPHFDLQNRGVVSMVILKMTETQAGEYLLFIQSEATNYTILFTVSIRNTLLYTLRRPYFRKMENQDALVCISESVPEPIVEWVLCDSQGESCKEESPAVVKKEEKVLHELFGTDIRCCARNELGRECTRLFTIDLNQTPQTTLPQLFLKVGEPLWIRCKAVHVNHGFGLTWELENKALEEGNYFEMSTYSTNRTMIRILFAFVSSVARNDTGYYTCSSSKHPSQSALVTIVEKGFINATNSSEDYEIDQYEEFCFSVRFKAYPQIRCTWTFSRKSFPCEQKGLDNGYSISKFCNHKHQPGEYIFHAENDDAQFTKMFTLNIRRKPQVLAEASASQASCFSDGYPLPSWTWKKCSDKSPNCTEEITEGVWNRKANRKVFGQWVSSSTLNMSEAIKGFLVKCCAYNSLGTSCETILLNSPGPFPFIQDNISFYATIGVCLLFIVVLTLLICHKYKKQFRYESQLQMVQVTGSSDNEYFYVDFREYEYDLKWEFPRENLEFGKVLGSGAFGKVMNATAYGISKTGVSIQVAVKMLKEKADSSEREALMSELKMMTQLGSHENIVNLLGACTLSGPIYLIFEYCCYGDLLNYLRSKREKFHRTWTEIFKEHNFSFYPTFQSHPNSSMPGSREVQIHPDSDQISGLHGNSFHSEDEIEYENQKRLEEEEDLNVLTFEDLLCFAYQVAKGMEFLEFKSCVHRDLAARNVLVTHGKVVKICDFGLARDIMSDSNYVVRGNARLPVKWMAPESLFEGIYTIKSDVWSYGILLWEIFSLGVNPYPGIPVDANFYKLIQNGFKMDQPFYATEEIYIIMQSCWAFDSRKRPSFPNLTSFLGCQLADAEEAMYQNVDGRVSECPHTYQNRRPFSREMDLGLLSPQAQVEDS

[3] = target: T3, Tyrosine-protein kinase receptor UFO (Homo sapiens, UniProt P30530); experiment: Inhibition of GST-tagged AXL (unknown origin) ([…] residues) using Axltide (CKKSRGDYMTMQJG-acid) peptide as substrate preincubated for 30 mins followed by substrate and ATP addition at Km concentration measured after 180 mins by RapidFire LC-MS analysis
T3 sequence (P30530 whole entry): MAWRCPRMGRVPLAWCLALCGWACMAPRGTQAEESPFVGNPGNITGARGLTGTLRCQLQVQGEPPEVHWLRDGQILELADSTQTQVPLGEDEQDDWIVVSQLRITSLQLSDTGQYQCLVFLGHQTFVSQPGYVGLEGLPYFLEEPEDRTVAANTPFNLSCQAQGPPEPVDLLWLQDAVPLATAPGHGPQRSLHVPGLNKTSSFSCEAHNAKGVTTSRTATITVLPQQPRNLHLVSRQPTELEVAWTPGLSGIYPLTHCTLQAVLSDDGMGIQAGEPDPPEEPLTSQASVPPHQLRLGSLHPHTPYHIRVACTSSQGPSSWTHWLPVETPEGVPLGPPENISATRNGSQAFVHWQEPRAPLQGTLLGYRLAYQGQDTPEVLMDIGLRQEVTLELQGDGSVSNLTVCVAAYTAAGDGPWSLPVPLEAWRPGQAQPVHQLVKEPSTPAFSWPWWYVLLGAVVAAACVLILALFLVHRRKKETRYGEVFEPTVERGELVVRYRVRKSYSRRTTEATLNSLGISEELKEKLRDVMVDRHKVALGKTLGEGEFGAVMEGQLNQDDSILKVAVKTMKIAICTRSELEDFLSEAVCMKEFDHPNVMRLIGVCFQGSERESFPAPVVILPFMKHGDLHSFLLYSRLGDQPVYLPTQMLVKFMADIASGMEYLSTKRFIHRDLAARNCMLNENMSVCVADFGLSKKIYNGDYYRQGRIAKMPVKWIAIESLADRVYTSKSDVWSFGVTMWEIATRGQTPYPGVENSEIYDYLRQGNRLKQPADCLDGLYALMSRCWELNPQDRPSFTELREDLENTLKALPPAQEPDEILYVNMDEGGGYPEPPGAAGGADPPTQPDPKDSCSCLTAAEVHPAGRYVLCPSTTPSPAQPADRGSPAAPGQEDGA

[4] = Distribution coefficient, logD of compound at pH 7.4; format: physicochemical; conditions: octanol/water

| Structure (SMILES) | IC50 [1] | IC50 [2] | IC50 [3] | logD [4] |
| --- | --- | --- | --- | --- |
| CN(Cc1ccc2nccn2c1)c1nnc(-c2ccc(-c3ccccc3Cl)cc2)o1 | 10 µM | 15.8 µM | 0.398 µM | 4.8 |
| Cc1cc(N(C)C)ccc1-c1nnc(N(C)Cc2ccc3nccn3c2)o1 | > 100 µM | 31.6 µM | 15.8 µM | 3.2 |
| O=S(=O)(c1ccc(Nc2ncc(N3CCOCC3)c(Nc3ccccc3)n2)cc1)N1CCCCC1 | 6.31 µM | > 39.8 µM | 0.2 µM | 4.5 |
| CNC(=O)c1sc(N2CC3CC2(CNC(=O)c2c[nH]c4ncc(Cl)cc24)C3)nc1C(F)(F)F | 0.631 µM | 1.58 µM | 0.01 µM | 4 |
| COc1cc2ncnc(Nc3cnc(OCCC4CC4)nc3)c2cc1OCC1CCNCC1 | 2 µM | > 50.1 µM | 3.16 µM | 1.4 |
| CN(Cc1ccc2nccn2c1)c1nnc(-c2ncc(C(F)(F)F)cc2Cl)o1 | > 100 µM | > 100 µM | > 100 µM | 2.6 |
| CCn1c(-c2nnc(N(C)Cc3ccc4nccn4c3)o2)nc2ccccc21 | 39.8 µM | 6.31 µM | 39.8 µM | 3 |
| CNC(=O)c1sc(N2CC3CC2(CNC(=O)c2c[nH]c4ncc(C(F)(F)F)cc24)C3)nc1C(F)(F)F | > 100 µM | > 100 µM | 0.0251 µM | 4.2 |
| CN(Cc1ccc2c(c1)CCCO2)c1nnc(-c2ccc(-c3ccccc3Cl)cc2)o1 | > 100 µM | > 100 µM | 0.398 µM | > 5.6 |
| CNC(=O)c1sc(N2CC3CC2(CNC(=O)c2c[nH]c4ncccc24)C3)nc1C(F)(F)F | 2 µM | 5.01 µM | 0.01 µM | 3.1 |
| CNc1nc(OCC2CCC2)nc2c1ncn2Cc1c(F)cccc1F | 3.16 µM | > 50.1 µM | 1.58 µM | 4.4 |
| CN(Cc1ccc2nccn2c1)c1nnc(-c2ccc(-c3ccccc3Cl)nc2)o1 | 20 µM | 15.8 µM | 3.16 µM | 3.3 |
| CN(Cc1ccc2nccn2c1)c1nnc(-c2ccc(OC3CCCC3)cc2)o1 | 79.4 µM | 20 µM | 3.98 µM | 4.1 |
| C[C@@H]1CN(c2cnc(Nc3cc(F)c(OCC4CC4)c(F)c3)nc2NC2CCOCC2)CCN1 | 0.251 µM | 10 µM | 1.58 µM | 3.2 |
| CNC(=O)c1sc(N2CC3CC2(CNC(=O)c2c[nH]c4ncc(C)cc24)C3)nc1C(F)(F)F | 1 µM | 1.58 µM | 0.00398 µM | 3.5 |
| CNC(=O)C[C@@H](NC(=O)[C@@H](CCc1ccccc1)NC(=O)c1c(C)noc1-c1snnc1C)c1ccc(C(F)(F)F)cc1 | 0.0316 µM | > 100 µM | 0.0158 µM | 4.2 |
| Cc1c(C(=O)Nc2ccc(Oc3ccnc4[nH]cc(-c5ccccc5)c34)c(F)c2)c(=O)n(-c2ccc(F)cc2)n1C | 0.01 µM | 0.0631 µM | 0.00316 µM | > 5 |
